In ChEMBL document CHEMBL1221197, “Selective inhibitors of death in mutant huntingtin cells” (Nat Chem Biol, 2007):
The source made the active and inactive calls. The calls are words filed in the database; no cut-off is given here.

Key:
[1] = Cytotoxicity against rat ST14A cells transfected with human htt gene; format: cell-based; details: read-out: TC50 (the source's name)
[2] = Inhibition of human huntingtin Q103 mutant expressed in rat PC12 cells assessed as decrease in cell death; format: cell-based, PC-12
[3] = Inhibition of human huntingtin N548 mutant expressed in rat ST14A cells assessed as decrease in cell death; format: cell-based
Saccharomyces cerevisiae = experiment: Inhibition of huntingtin in Saccharomyces cerevisiae coexpressing exon 1 fragments with polyQ region Huntington disease (HD) model assessed as increase in cell viability
neuronal = experiment: Inhibition of huntingtin mutant in Caenorhabditis elegans ASH neuronal cell Huntington disease model assessed as cell viability; format: cell-based
Brain = experiment: Inhibition of medium spiny neuron degeneration in rat brain slice Huntington disease (HD) model after 4 days; format: functional, tissue-based
PC-12 = experiment: Inhibition of human huntingtin Q103 mutant expressed in rat PC12 cells assessed as decrease in cell death relative to control; format: cell-based; set-up: concentration or dose not given beside the values
ST14A [4] = experiment: Inhibition of apoptosis in rat ST14A cells transfected with human htt gene assessed as inhibition of caspase 3 cleavage by Western blot method; format: functional, cell-based
ST14A [5] = experiment: Inhibition of apoptosis in rat ST14A cells transfected with human htt gene assessed as inhibition of caspase 7 cleavage by Western blot method; format: functional, cell-based
ST14A [6] = experiment: Inhibition of cell death in rat ST14A cells assessed as cell viability; format: functional, cell-based
ST14A [7] = experiment: Inhibition of rat ST14A cell death expressing human huntingtin N548 mutant assessed as inhibition of cell death at 50 uM after 6 hrs by fluorimetry; format: functional, cell-based
ST14A [8] = experiment: Inhibition of rat ST14A cell death assessed as inhibition of cell death at 50 uM after 6 hrs by fluorimetry; format: functional, cell-based

| Structure (SMILES) | CC50 [1] [µM] | EC50 ([2]; pc-12) | EC50 [3] [µM] | inhibition (Saccharomyces cerevisiae) | inhibition (neuronal) | inhibition (Brain) | EC50 ([2]; PC-12, read-out: EC50) [µM] | inhibition (PC-12) [%] | inhibition (ST14A [4]) | inhibition (ST14A [5]) | inhibition (ST14A [6]) | INH (neuronal) [mM] | inhibition (ST14A [7]) | inhibition (ST14A [8]) |
| --- | --- | --- | --- | --- | --- | --- | --- | --- | --- | --- | --- | --- | --- | --- |
| COC1=CC2C(=O)C(=O)N3C2C(=C1)[C@H](C)CC3(C)C (stereo partly drawn) | 77 | Not Active | 16 | inactive | inactive |  |  |  |  |  |  |  |  |  |
| CC(C)CC(NC(=O)OCc1ccccc1)C(=O)Oc1ccc2c(=O)c(-c3ccc([N+](=O)[O-])cc3)coc2c1 (stereo not drawn) | 38 | Not Active | 8 | inactive | inactive |  |  |  |  |  |  |  |  |  |
| CC1CN(C(C)c2nc3ccccc3c(=O)n2-c2ccc(F)cc2)CCC1C(=O)C1CC1 (stereo not drawn) | 37 | Not Active | 5 | inactive | inactive |  |  |  |  |  |  |  |  |  |
| CCCCCCCCCC(=O)Oc1cc(-c2ccccc2)nn1-c1cccc(C)c1 | 75 |  | 10 | inactive | inactive | inactive | 100 | 23 |  |  |  |  |  |  |
| Cc1nc2c(O)c(Br)ccn2c(=O)c1Br | 24 | Not Active | 2 | inactive | inactive |  |  |  |  |  |  |  |  |  |
| CC1(C)C(C=C(Cl)Cl)C1C(=O)C1=C(O)CCCC1=O (stereo not drawn) | 79 | Not Active | 10 | inactive | inactive |  |  |  |  |  |  |  |  |  |
| CC(=O)N(C1=C(N(C)C)C(=O)c2ccccc2C1=O)c1ccc(Br)cc1 | 29 | Not Active | 5 | inactive | inactive |  |  |  |  |  |  |  |  |  |
| CCCc1ccc(CC2=C(O)C(=O)c3ccccc3C2=O)cc1 | 65 | Not Active | 7 | inactive | inactive |  |  |  |  |  |  |  |  |  |
| CCCc1cc(OC(=O)c2ccccc2F)n(-c2cccc(F)c2)n1 | 235 |  | 12 | inactive |  | Active | 145 | 21 | Active | inactive | inactive | 3 |  |  |
| CCCCCCCCC(=O)N(Cc1ccco1)C(C)c1nc2ccccc2c(=O)n1-c1cc(C)ccc1C (stereo not drawn) | 39 |  | 2 | inactive | inactive |  | 50 | 25 |  |  |  |  |  |  |
| CC1=NC(Nc2nc(C)c3cc(C)c(C)cc3n2)=NC(C)(C)C1 | 32 | Not Active | 7 | inactive | inactive |  |  |  |  |  |  |  |  |  |
| COc1ccc(CN(CCC2(c3ccccc3)CCOC(C)(C)C2)C(=O)c2ccco2)cc1OC (stereo not drawn) | 50 | Not Active | 5 | inactive | inactive |  |  |  |  |  |  |  |  |  |
| CCCc1cc(OC(=O)C(CC)c2ccccc2)n(-c2cccc(F)c2)n1 (stereo not drawn) | 218 | Not Active | 11 | inactive | inactive | Active |  |  |  |  |  |  |  |  |
| COc1cc2c(cc1OC)C(C)N(C(=O)NCc1ccccc1)CC2 (stereo not drawn) | 47 | Not Active | 3 | inactive | inactive |  |  |  |  |  |  |  |  |  |
| CCCCc1ccc(C(=O)N(CCC(=O)N2CCC(Cc3ccccc3)CC2)Cc2ccco2)cc1 | 41 |  | 5 | inactive | inactive |  | 60 | 27 |  |  |  |  |  |  |
| O=c1[nH]c2c(c(=O)[nH]1)C(c1cccc([N+](=O)[O-])c1)C=C(c1ccccc1)O2 (stereo not drawn) | 110 | Not Active | 3 | inactive | inactive |  |  |  |  |  |  |  |  |  |
| COc1ccc(C(CCN(CC2CCOC(C)(C)C2)C(C)=O)c2ccccc2)cc1 (stereo not drawn) | 49 | Not Active | 10 | inactive | inactive |  |  |  |  |  |  |  |  |  |
| CCCN1C(=O)C(=O)c2cc(C)ccc21 | 98 | Not Active | 5 | inactive | inactive |  |  |  |  |  |  |  |  |  |
| CCC1CN2CCc3cc(OC)c(OC)cc3C2CC1CC1c2cc(OC)c(OC)cc2CCN1C(=O)c1ccco1 (stereo not drawn) | 42 | Not Active | 6 | inactive | inactive |  |  |  |  |  |  |  |  |  |
| Oc1ccc2c(c1)CC1NCCc3cc(O)c(O)c-2c31 (stereo not drawn) | 74 | Not Active | 15 | inactive | inactive |  |  |  |  |  |  |  |  |  |
| COc1ccccc1C(CCN(C(C)=O)C(C)c1ccccc1)C1CCC(C)(C)OC1 (stereo not drawn) | 47 | Not Active | 5 | inactive | inactive |  |  |  |  |  |  |  |  |  |
| CC1=NN(C(N)=S)C(=O)/C1=N/Nc1ccccc1C(F)(F)F | 49 | Not Active | 7 | inactive | inactive |  |  |  |  |  |  |  |  |  |
| COc1c2c(cc3c1C(CC(=O)/C=C/c1ccco1)[N+](C)(C)CC3)OCO2 (stereo not drawn) | 80 |  | 9 | inactive |  | inactive | 22 | 34 | Active | inactive |  | 2.2 |  |  |
| NNc1nnc(-c2ccccc2)c2ccccc12 | 102 |  | 5 | inactive | inactive |  | 8 | 18 |  |  |  |  |  |  |
| O=C(Cc1cccs1)/C(=N/NC(=O)c1cccc(Br)c1)C(F)(F)F | 48 | Not Active | 5 | inactive | inactive |  |  |  |  |  | inactive |  |  |  |
| CCCCCCN(C(=O)CCCC)C(C)c1nc2ccccc2c(=O)n1-c1ccccc1OC (stereo not drawn) | 26 | Not Active | 9 | inactive | inactive |  |  |  |  |  |  |  |  |  |
| CC(C)C1=CCC2C(=C1)CCC1[C@@]2(C)CCC[C@]1(C)C(=O)O (stereo partly drawn) | 53 | Not Active | 7 | inactive | inactive |  |  |  |  |  |  |  |  |  |
| CCOC(=O)c1cccc(NS(=O)(=O)c2ccc(OC)cc2)c1 | 119 | Not Active | 15 | inactive | inactive |  |  |  |  |  |  |  |  |  |
| Cc1ccc(-c2nc(NS(=O)(=O)c3ccc(Cl)cc3)sc2C)cc1 | 42 | Not Active | 11 | inactive | inactive |  |  |  |  |  |  |  |  |  |
| COC(=O)C[C@H](NC(=O)OC(C)(C)C)C(=O)CF |  |  |  |  |  |  |  |  |  |  |  |  | Dose-dependent effect | Dose-dependent effect |
